Experimental data: US20250002450A1, “CATIONIC STEROID COMPOUNDS, METHOD OF OBTAINING THEREOF, FORMULATIONS COMPRISING THEREOF AND THEIR USES” (UNIVERSIDADE DO PORTO, priority 2021, published 2025)
Values after ≈ are worked out from the molar mass of the structure shown. Where two headings read alike, the source gives them in different places.

Assays:
[1] = system: E. coli 2252 (COL-resistant); assay: Antibacterial MIC/MBC (broth microdilution); type: cell-based, Escherichia coli; conditions: for MBC / MIC: E. coli 2252 (COL-resistant); for MBC: read-out: MBC
Excerpt: (§1) Twelve reference bacterial strains and nine MDR clinically relevant bacterial strains were used in this study. Gram-negative bacteria comprised reference strains E. coli ATCC 25922, K. pneumoniae ATCC 13883, Salmonella enterica serovar Typhimurium CECT 443, P. aeruginosa ATCC 27853, A. baumannii ATCC 19606, C. jejuni ATCC 33560 (ATCC—American Type Culture Collection; CECT—Colección Espanola de Cultivos Tipo); clinical isolates E. coli SA/2, an extended-spectrum β-lactamase (ESBL)-producing strain and P. aeruginosa 33b, a pan-drug-resistant isolate; and animal isolates C. jejuni P5/4, a ciprofloxacin-resistant strain, C. jejuni 4432, C. jejuni 4433, C. jejuni 4448, and E. coli 2252, a COL-resistant strain [42]. Gram-positive strains included S. aureus ATCC 29213, E. faecalis ATCC 29212, S. pyogenes ATCC 19615, and environmental isolates methicillin-resistant S. aureus (MRSA) 66/1 [43], and VAN-resistant enterococci (VRE) E. faecalis B3/101 [44]. Gram-negative fish pathogens Yersinia ruckeri ATCC 29473, Listonella anguillarum ATCC 1924, and Tenacibaculum maritimum ATCC 43397 were also included.
(§2) Strains were kept in Trypto-Casein Soy agar (TSA—Biokar Diagnostics, Allone, Beauvais, France) slants and, before each assay, were sub-cultured in Mueller-Hinton agar (MHA—Biokar Diagnostics, Allone, Beauvais, France). Y. ruckeri ATCC 29473 and L. anguillarum ATCC 1924 were kept in Nutrient Agar (Condalab, Madrid, Spain) and T. maritimum ATCC 43397 was kept in TMM agar (Condalab, Madrid, Spain), and were sub-cultured in the respective culture media before each assay. For S. pyogenes ATCC 19615, CAMHB was supplemented with 3.75% lysed horse blood (LBH—Oxoid, Basingstoke, England), whereas for C. jejuni it was supplemented with 2.5% LHB. Colony-forming unit counts of the inoculum were conducted to determine the initial inoculum size (which should be approximately 5×10^5 CFU/mL). Sterility and growth controls were included in each assay. The 96-well U-shaped untreated polystyrene microtiter plates were incubated for 20 h at 37 degrees C. (42 degrees C. for C. jejuni, in a microaerophilic atmosphere) and the minimal inhibitory concentration (MIC) was determined as the lowest concentration of compound that prevented visible growth. The minimal bactericidal concentration (MBC) was determined by spreading 100 μL of the content of the wells with no visible growth on MH plates. The MBC was determined as the lowest concentration of compound that killed 99.9% of the initial inoculum after overnight incubation at 37 degrees C. Two independent assays were performed for reference and MDR strains.
(§3) An initial screening of the antibacterial activity of the compounds was performed by the Kirby-Bauer disk diffusion method, as recommended by the Clinical and Laboratory Standards Institute (CLSI). Briefly, sterile 6 mm blank paper disks (Oxoid, Basingstoke, England) impregnated with 15 μg of each compound were placed on inoculated MH agar plates. A blank disk with dimethylsulfoxide (DMSO) was used as a negative control. MH inoculated plates were incubated for 18-20 h at 37 degrees C. At the end of incubation, the inhibition halos where measured. The MIC was used to determine the antibacterial activity of each compound, in accordance with the recommendations of the CLSI. Two-fold serial dilutions of the compounds were prepared in Mueller-Hinton Broth 2 (MHB2—Sigma-Aldrich, St. Louis, MO, USA) within the concentration range of 0.062-64 μg/mL. CTX ranging between 0.031-16 μg/mL was used as a control. Sterility and growth controls were included in each assay. Purity checks and colony counts of the inoculum suspensions were also performed in order to ensure that the final inoculum density closely approximates the intended number (5×10^5 CFU/mL). The MIC was determined as the lowest concentration of compound that inhibited growth of the bacteria. The MBC was assessed by spreading 10 μL of culture collected from wells showing no visible growth on MH agar plates. […]

E. coli SA/2 (ESBL) = assay: Antibacterial MIC/MBC (broth microdilution); type: cell-based, Escherichia coli
Excerpt: as §1, §2, §3

[2] = system: Tenacibaculum maritimum ATCC 43397; assay: Antibacterial disk diffusion; type: cell-based; conditions: for Inhibition zone diameter (disk diffusion): Tenacibaculum maritimum ATCC 43397, footnote *
Excerpt: as §1, §2, §3

P. aeruginosa 33b (PDR) = assay: Antibacterial MIC/MBC (broth microdilution); type: cell-based, Pseudomonas aeruginosa; conditions: for MBC / MIC: P. aeruginosa 33b (PDR)
Excerpt: as §1, §2, §3

[3] = system: Campylobacter jejuni ATCC 33560; assay: Antibacterial MIC/MBC (broth microdilution); type: cell-based; conditions: for MBC / MIC: Campylobacter jejuni ATCC 33560; for antibacterial activity (in words): C. jejuni ATCC 33560
[4] = system: Gram-negative and Gram-positive bacteria; assay: Antibacterial activity, whole strain panel; type: cell-based; conditions: for spectrum of antibacterial activity (in words): all bacterial strains tested
Excerpt: as §1, §2, §3

[5] = Escherichia coli, read-out: MIC
[6] = Pseudomonas aeruginosa, read-out: MBC
[7] = Pseudomonas aeruginosa, read-out: MIC

| Structure (SMILES) | MBC ([1]; Escherichia coli) [µg/mL] | MIC [1, 5] [µg/mL] | MBC (E. coli SA/2 (ESBL); Escherichia coli) [µg/mL] | MIC (E. coli SA/2 (ESBL); Escherichia coli) [µg/mL] | Inhibition zone diameter (disk diffusion) [2] [mm] | MBC (P. aeruginosa 33b (PDR); [6]) [µg/mL] | MIC (P. aeruginosa 33b (PDR); [7]) [µg/mL] | MBC ([3]; ATCC33560, read-out: MBC) [µg/mL] | MIC ([3]; ATCC33560, read-out: MIC) [µg/mL] | activity against Gram-negative bacteria (in words) [4] | spectrum of antibacterial activity (in words) [4] | also measured |
| --- | --- | --- | --- | --- | --- | --- | --- | --- | --- | --- | --- | --- |
| C[C@H](CCC(=O)N1CCOCC1)[C@H]1CC[C@H]2[C@@H]3CC[C@@H]4C[C@H](O)CC[C@]4(C)[C@H]3C[C@H](O)[C@]12C [Compound 3, (R)-4-((3R,5R,8R,9S,10S,12S,13R,14S,17R)-3,12-dihydroxy-10,13-dimethylhexadecahydro-1H-cyclopenta[a]phenanthren-17-yl)-1-morpholinopentan-1-one] | > 64 | > 64 | > 64 | > 64 | 10 | > 64 | > 64 | > 64 | > 64 |  |  |  |
| C[C@H](CCC(=O)NCCNc1ccccc1)[C@H]1CC[C@H]2[C@@H]3CC[C@@H]4C[C@H](O)CC[C@]4(C)[C@H]3C[C@H](O)[C@]12C [Compound 8, (R)-4-((3R,5R,8R,9S,10S,12S,13R,14S,17R)-3,12-dihydroxy-10,13-dimethylhexadecahydro-1H-cyclopenta[a]phenanthren-17-yl)-N-(2-(phenylamino)ethyl)pentanamide] | > 64 | > 64 | > 64 | > 64 | 12 | > 64 | > 64 | > 64 | > 64 |  |  |  |
| C[C@H](CCC(=O)N1CCN(C(=O)OC(C)(C)C)CC1)[C@H]1CC[C@H]2[C@@H]3CC[C@@H]4C[C@H](O)CC[C@]4(C)[C@H]3C[C@H](O)[C@]12C [Compound 5, tert-butyl 4-((R)-4-((3R,5R,8R,9S,10S,12S,13R,14S,17R)-3,12-dihydroxy-10,13-dimethylhexadecahydro-1H-cyclopenta[a]phenanthren-17-yl)pentanoyl)piperazine-1-carboxylate] | > 64 | > 64 | > 64 | > 64 | 10 | > 64 | > 64 | > 64 | > 64 |  |  |  |
| CCN(CC)CCNC(=O)CC[C@@H](C)[C@H]1CC[C@H]2[C@@H]3CC[C@@H]4C[C@H](O)CC[C@]4(C)[C@H]3C[C@H](O)[C@]12C [Compound 6, (R)—N-(2-(diethylamino)ethyl)-4-((3R,5R,8R,9S,10S,12S,13R,14S,17R)-3,12-dihydroxy-10,13-dimethylhexadecahydro-1H-cyclopenta[a]phenanthren-17-yl)pentanamide] | > 64 | > 64 | > 64 | > 64 | 10 | > 64 | > 64 | > 64 | > 64 | exhibited activities |  |  |
| C[C@H](CCC(=O)N1CCCCC1)[C@H]1CC[C@H]2[C@@H]3CC[C@@H]4C[C@H](O)CC[C@]4(C)[C@H]3C[C@H](O)[C@]12C [Compound 2, (R)-4-((3R,5R,8R,9S,10S,12S,13R,14S,17R)-3,12-dihydroxy-10,13-dimethylhexadecahydro-1H-cyclopenta[a]phenanthren-17-yl)-1-(piperidin-1-yl) pentan-1-one] | > 64 | > 64 | > 64 | > 64 | 18 | > 64 | > 64 | 64 (≈ 139 µM) | 64 (≈ 139 µM) |  |  | antibacterial activity (in words) [3]: showed antimicrobial activity |
| C[C@H](CCC(=O)NCCN)[C@H]1CC[C@H]2[C@@H]3CC[C@@H]4C[C@H](O)CC[C@]4(C)[C@H]3C[C@H](O)[C@]12C [Compound 1, (R)—N-(2-aminoethyl)-4-((3R,5R,8R,9S,10S,12S,13R,14S,17R)-3,12-dihydroxy-10,13-dimethylhexadecahydro-1H-cyclopenta[a]phenanthren-17-yl) pentanamida] |  |  |  |  |  |  |  |  |  | exhibited activities | active in every bacterial strain tested | antibacterial activity (in words) ([1]; E. coli 2252): active; MIC [1]: 64 µg/mL (≈ 147 µM); antibacterial activity (in words) (E. coli SA/2 (ESBL); E. coli SA/2): active; MBC (E. coli SA/2 (ESBL); E. coli SA/2 (ESBL)): 32 µg/mL (≈ 73.6 µM); MIC (E. coli SA/2 (ESBL); E. coli SA/2 (ESBL)): 32 µg/mL (≈ 73.6 µM); Disk diffusion ([2]; Tenacibaculum maritimum ATCC 43397): 20 mm; antibacterial activity (in words) (P. aeruginosa 33b (PDR); P. aeruginosa 33b): active; MBC (P. aeruginosa 33b (PDR)): >64 µg/mL; MIC (P. aeruginosa 33b (PDR)): 64 µg/mL (≈ 147 µM); antibacterial activity (in words) [3]: showed antimicrobial activity; MBC [3]: 64 µg/mL (≈ 147 µM); MIC [3]: 64 µg/mL (≈ 147 µM) |
| C[C@H](CCC(=O)N1CCNCC1)[C@H]1CC[C@H]2[C@@H]3CC[C@@H]4C[C@H](O)CC[C@]4(C)[C@H]3C[C@H](O)[C@]12C [Compound 9, (R)-4-((3R,5R,8R,9S,10S,12S,13R,14S,17R)-3,12-dihydroxy-10,13-dimethylhexadecahydro-1H-cyclopenta[a]phenanthren-17-yl)-1-(piperazin-1-yl) pentan-1-one] | > 64 | > 64 | > 64 | > 64 | 9 | > 64 | > 64 | > 64 | > 64 | exhibited activities | broad spectrum of activity |  |
| C[C@H](CCC(=O)N1CCN(C(=O)CC[C@H](C)[C@@H]2CC[C@@H]3[C@H]4CC[C@H]5C[C@@H](O)CC[C@@]5(C)[C@@H]4C[C@@H](O)[C@]32C)CC1)[C@H]1CC[C@H]2[C@@H]3CC[C@@H]4C[C@H](O)CC[C@]4(C)[C@H]3C[C@H](O)[C@]12C [Compound 4, (R)-4-((3R,5R,8R,9S,10S,12S,13R,14S,17R)-3,12-dihydroxy-10,13-dimethylhexadecahydro-1H-cyclopenta[a]phenanthren-17-yl)-1-(4-((S)-4-((3S,5S,8S,9R,10R,12R,13S,14R,17S)-3,12-dihydroxy-10,13-dimethylhexadecahydro-1H-cyclopenta[a]phenanthren-17-yl)pentanoyl)piperazin-1-yl) pentan-1-one] | > 64 | > 64 | > 64 | > 64 | 10 | > 64 | > 64 | > 64 | > 64 | exhibited activities | active in eight of the tested strains |  |
